{"source": "patent US20130303518A1", "about": "“Methods of Inhibiting the Catalytic Activity of a Protein Kinase and of Treating a Protein Kinase Related Disorder” (JIANGSU HANSOH PHARMACEUTICAL CO., LTD., priority 2007, published 2013)", "key": {"[1]": {"system": "NCI—H460 (non-small cell lung cancer)", "assay": "Anticancer pharmacodynamic assay in vivo, xenograft", "parameters": "species or system nude mice", "conditions": "for T/C (%): relative tumor volume (%): NCI-H460 xenograft, d0-13, P < 0.01 vs Control", "description": "(§1) The test method and steps are the same with those disclosed in “PHARMACODYNAMIC ASSAYS IN VIVO” of the present invention. The therapeutic effects of the compound of Example 53 against xenografts of colon cancer, non-small cell lung cancer, liver cancer, melanoma, renal cancer in nude mice are estimated.\nNCI—H460 (non-small cell lung cancer): Cell Bank, Chinese Academy of Sciences, TCHu205;\n(§2) Nude mice were hypodermic inoculated HT-29 human colon cancer cell. After tumors grew to 100-300 mm^3, mice were randomly divided into teams (d0). The volume of tumors and weigh of the mice were measured for 2-3 times per week. The calculation formula of the volume of tumor (V) is: V=½×a×b^2, a: length of tumor, b: width of tumor."}, "c-Kit": {"molecular_target": "T1, c-Kit (Homo sapiens, UniProt P10721)", "T1 construct": "purchased invitrogen PV3081", "T1 sequence (P10721 26-976)": "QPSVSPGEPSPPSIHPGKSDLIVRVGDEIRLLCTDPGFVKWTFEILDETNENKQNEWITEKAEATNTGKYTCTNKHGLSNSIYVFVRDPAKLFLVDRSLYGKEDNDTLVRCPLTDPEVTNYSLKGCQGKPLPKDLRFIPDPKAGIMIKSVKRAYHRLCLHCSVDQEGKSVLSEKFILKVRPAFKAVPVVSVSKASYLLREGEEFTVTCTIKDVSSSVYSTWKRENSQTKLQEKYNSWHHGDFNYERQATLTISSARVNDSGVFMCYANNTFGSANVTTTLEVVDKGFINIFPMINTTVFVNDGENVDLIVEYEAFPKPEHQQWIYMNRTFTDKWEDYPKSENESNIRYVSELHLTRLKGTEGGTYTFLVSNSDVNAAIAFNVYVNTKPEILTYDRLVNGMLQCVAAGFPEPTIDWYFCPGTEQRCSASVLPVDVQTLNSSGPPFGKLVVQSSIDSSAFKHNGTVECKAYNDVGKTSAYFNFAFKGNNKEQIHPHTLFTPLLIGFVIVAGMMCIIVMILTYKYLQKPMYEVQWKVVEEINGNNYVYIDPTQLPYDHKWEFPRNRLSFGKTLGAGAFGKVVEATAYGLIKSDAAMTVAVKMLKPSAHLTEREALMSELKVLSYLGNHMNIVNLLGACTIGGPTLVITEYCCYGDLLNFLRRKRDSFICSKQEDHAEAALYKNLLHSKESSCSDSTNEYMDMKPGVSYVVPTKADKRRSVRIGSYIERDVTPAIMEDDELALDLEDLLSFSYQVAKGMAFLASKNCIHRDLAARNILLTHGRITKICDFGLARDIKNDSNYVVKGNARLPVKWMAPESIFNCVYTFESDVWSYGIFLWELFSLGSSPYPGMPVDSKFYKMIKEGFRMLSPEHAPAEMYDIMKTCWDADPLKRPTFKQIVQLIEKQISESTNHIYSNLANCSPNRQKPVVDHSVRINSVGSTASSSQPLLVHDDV", "assay": "Inhibition of receptor tyrosine kinases activity assay", "format": "biochemical"}, "Flt1": {"molecular_target": "T2, Flt1 (Homo sapiens, UniProt P17948)", "T2 construct": "purchased invitrogen PV3666", "T2 sequence (P17948 27-1338)": "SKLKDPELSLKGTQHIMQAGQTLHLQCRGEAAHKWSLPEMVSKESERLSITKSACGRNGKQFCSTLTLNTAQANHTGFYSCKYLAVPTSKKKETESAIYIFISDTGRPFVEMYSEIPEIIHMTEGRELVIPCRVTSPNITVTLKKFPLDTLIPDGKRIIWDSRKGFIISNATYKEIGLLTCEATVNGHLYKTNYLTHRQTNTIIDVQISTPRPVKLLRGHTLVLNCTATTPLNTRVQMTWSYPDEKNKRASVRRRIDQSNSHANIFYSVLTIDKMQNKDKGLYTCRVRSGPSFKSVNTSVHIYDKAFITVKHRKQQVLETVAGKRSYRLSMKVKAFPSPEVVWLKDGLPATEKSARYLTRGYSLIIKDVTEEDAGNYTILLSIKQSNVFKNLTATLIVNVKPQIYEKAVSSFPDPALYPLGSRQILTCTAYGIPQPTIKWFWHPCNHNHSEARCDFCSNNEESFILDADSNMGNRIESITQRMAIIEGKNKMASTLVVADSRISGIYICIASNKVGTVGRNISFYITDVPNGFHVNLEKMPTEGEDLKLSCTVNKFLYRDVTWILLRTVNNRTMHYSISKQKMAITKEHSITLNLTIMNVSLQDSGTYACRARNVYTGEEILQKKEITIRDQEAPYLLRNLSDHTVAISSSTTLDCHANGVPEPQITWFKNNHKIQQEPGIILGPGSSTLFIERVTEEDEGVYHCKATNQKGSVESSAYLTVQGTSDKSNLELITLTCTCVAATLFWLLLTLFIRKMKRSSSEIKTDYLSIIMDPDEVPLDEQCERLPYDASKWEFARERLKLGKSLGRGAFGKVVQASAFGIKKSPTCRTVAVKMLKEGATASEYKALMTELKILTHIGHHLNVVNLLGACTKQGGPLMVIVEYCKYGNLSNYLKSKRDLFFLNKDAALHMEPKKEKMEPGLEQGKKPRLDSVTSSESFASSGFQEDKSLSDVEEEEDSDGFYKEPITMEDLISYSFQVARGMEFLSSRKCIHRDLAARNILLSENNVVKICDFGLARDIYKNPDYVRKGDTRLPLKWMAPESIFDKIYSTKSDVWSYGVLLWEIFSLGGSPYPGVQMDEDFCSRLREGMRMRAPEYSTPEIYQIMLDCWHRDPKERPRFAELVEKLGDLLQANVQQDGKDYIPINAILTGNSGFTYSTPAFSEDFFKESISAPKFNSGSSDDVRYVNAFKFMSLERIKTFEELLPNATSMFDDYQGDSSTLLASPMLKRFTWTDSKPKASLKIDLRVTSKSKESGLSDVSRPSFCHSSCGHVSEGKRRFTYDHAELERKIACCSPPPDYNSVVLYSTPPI", "assay": "Inhibition of receptor tyrosine kinases activity assay", "format": "biochemical"}, "[2]": {"system": "HUVEC (human umbilical vein endothelial cells)", "assay": "Inhibition of cancer cell proliferation assay (SRB)", "format": "cell-based", "conditions": "mean ± SD, 72 hours", "description": "The cellular assay described here is to test the proliferation inhibition activity of the compound of Example 53 on the cancer cells in vitro using Sulforhodamine B (SRB) method. The cancer cells include HUVEC (human umbilical vein endothelial cells), HT-29 (human colon cancer cells), Mo7e (human megakaryoblastic leukemia cell line), A431 (human epidermoid carcinoma cells), NCI—H526 (small-cell lung cancer cells), and SK—BR-3 (human breast cancer cells).\nHUVEC cancer cell: American Type Culture Collection, Cat. No. CRL-1730\nThe following in vitro assay is to determine the activity of the tested compound for inhibiting the proliferation of the cancer cells mentioned above. The activity is represented by the IC50 value. The general procedures of the assay are given as follows: Cancer cells mentioned above were chosen and seeded to 96-well cell culture plate at a suitable concentration (e.g., 5000 cells/mL medium). These cells then were incubated in carbon dioxide (CO2) incubator until they reached 85% confluency. […] 72 hours later, the activity of the tested compound for inhibiting the cell proliferation was determined by using Sulforhodamine B (SRB) method. IC50 value on tested cells is calculated by the data of inhibition rates of serial concentrations of the tested compound."}, "[3]": {"system": "Calu-3(non-small cell lung cancer)", "assay": "Anticancer pharmacodynamic assay in vivo, xenograft", "parameters": "species or system nude mice", "conditions": "for T/C (%): relative tumor volume (%) / Note: PR (partial regression), animals: Calu-3 xenograft, d0-20; for Note: PR (partial regression), animals: treatment group n = 6", "description": "as §1\nCalu-3(non-small cell lung cancer): Cell Bank, Chinese Academy of Sciences, TCHu157;\nas §2"}, "Caki-1 (renal cancer)": {"system": "Caki-1 (renal cancer)", "assay": "Anticancer pharmacodynamic assay in vivo, xenograft", "parameters": "species or system nude mice", "conditions": "for T/C (%): relative tumor volume (%): Caki-1 xenograft, d0-22", "description": "as §1\nCaki-1 (renal cancer): Cell Bank, Chinese Academy of Sciences, TCHu135.\nas §2"}, "Flt3": {"molecular_target": "T3, Flt3 (Homo sapiens, UniProt P36888)", "T3 construct": "purchased invitrogen PV3182", "T3 sequence (P36888 27-993)": "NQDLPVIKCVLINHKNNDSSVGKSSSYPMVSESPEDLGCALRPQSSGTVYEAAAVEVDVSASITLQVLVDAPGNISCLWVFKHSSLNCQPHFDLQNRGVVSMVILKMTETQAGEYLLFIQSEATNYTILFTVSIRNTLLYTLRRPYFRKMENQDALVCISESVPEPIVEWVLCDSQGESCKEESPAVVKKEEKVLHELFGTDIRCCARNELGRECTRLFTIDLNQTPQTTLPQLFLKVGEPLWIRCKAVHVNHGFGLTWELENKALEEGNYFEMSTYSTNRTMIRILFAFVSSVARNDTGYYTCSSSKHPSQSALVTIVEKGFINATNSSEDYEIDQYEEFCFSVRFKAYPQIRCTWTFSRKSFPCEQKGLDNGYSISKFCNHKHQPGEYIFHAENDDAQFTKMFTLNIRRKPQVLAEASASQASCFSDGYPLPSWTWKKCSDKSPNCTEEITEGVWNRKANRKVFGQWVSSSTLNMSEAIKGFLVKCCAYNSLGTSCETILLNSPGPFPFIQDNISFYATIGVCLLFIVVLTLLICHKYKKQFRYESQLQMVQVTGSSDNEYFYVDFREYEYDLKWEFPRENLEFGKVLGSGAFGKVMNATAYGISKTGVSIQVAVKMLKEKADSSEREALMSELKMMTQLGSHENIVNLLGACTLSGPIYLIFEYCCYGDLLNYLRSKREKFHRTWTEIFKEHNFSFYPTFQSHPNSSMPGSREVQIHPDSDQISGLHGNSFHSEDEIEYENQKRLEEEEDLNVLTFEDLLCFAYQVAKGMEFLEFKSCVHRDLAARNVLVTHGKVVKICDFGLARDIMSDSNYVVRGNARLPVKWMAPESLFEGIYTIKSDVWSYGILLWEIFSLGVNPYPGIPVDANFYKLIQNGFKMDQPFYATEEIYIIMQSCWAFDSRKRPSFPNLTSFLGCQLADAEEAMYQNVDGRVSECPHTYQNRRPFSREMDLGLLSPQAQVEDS", "assay": "Inhibition of receptor tyrosine kinases activity assay", "format": "biochemical"}, "[4]": {"conditions": "mean ± SD, 20 μM ATP, 25° C., 45 minutes"}}, "note": "Marks after values point to notes of the source that are not given here."}
{"smiles": "Cc1c(/C=C2\\C(=O)Nc3ccc(F)cc32)[nH]c2c1C(=O)N(C[C@H](O)CN1CCOCC1)CCC2", "note": "[Example 53, (R,Z)-2-(5-Fluoro-2-oxo-1,2-dihydro-indol-3-ylidenemethyl)-5-(2-hydroxy-3-morpholin-4-yl-propyl)-3-methyl-5,6,7,8-tetrahydro-1H-pyrrolo[3,2-c]azepin-4-one]", "values": [{"measurement": "T/C (%): relative tumor volume (%)", "setting": "[1]; 15 mg/kg p.o", "result": "41.1* %"}, {"measurement": "T/C (%): relative tumor volume (%)", "setting": "[1]; 30 mg/kg p.o", "result": "46.3* %"}, {"measurement": "T/C (%): relative tumor volume (%)", "setting": "[1]; 60 mg/kg p.o", "result": "58.4* %"}, {"measurement": "anticancer activity against xenograft (in words)", "setting": "[1]; NCI—H460 xenograft in nude mice", "result": "obvious anticancer activity"}, {"measurement": "inhibition of kinase activity (in words)", "setting": "c-Kit; c-Kit", "result": "obvious activity"}, {"measurement": "IC50", "setting": "c-Kit; [4]", "result": "3.3 ± 3.6", "unit": "nM"}, {"measurement": "inhibition of kinase activity (in words)", "setting": "Flt1; Flt1", "result": "obvious activity"}, {"measurement": "IC50", "setting": "Flt1; [4]", "result": "30.9 ± 5.7", "unit": "nM"}, {"measurement": "IC50", "setting": "[2]", "result": 1100, "unit": "nM"}, {"measurement": "anticancer activity against xenograft (in words)", "setting": "[3]; Calu-3 xenograft in nude mice", "result": "obvious anticancer activity"}, {"measurement": "T/C (%): relative tumor volume (%)", "setting": "[3]; 15 mg/kg p.o", "result": 26.3, "unit": "%"}, {"measurement": "T/C (%): relative tumor volume (%)", "setting": "[3]; 30 mg/kg p.o", "result": 14.7, "unit": "%"}, {"measurement": "Note: PR (partial regression), animals", "setting": "[3]; 30 mg/kg p.o", "result": "3/6(PR)"}, {"measurement": "T/C (%): relative tumor volume (%)", "setting": "[3]; 60 mg/kg p.o", "result": 16.1, "unit": "%"}, {"measurement": "Note: PR (partial regression), animals", "setting": "[3]; 60 mg/kg p.o", "result": "3/6(PR)"}, {"measurement": "anticancer activity against xenograft (in words)", "setting": "Caki-1 (renal cancer); Caki-1 xenograft in nude mice", "result": "obvious anticancer activity"}, {"measurement": "T/C (%): relative tumor volume (%)", "setting": "Caki-1 (renal cancer); 15 mg/kg p.o", "result": 73.0, "unit": "%"}, {"measurement": "T/C (%): relative tumor volume (%)", "setting": "Caki-1 (renal cancer); 30 mg/kg p.o", "result": 45.5, "unit": "%"}, {"measurement": "T/C (%): relative tumor volume (%)", "setting": "Caki-1 (renal cancer); 60 mg/kg p.o", "result": 36.8, "unit": "%"}, {"measurement": "inhibition of kinase activity (in words)", "setting": "Flt3; Flt3", "result": "obvious activity"}, {"measurement": "IC50", "setting": "Flt3; [4]", "result": "19.3 ± 3.1", "unit": "nM"}]}
